Source: PubChem BioAssay AID256 (DTP/NCI, 2004)
“And” between values parts separate entries of the source, which are not always exact repeats. Equal values may be shown once. Toxic doses and inconclusive results are not listed.

System: CD2F1 mice, L1210 leukemia ip, survival T/C
Assay: NCI In Vivo Anticancer Drug Screen. Data for tumor model L1210 Leukemia (intraperitoneal) in CD2F1 (CDF1) mice
Conditions: endpoint: mean survival time, higher = longer survival
Outline: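 Antitumor effect is scored in animals hosting a serially transplanted tumor. Values compare compound-dosed animals against vehicle-only controls as a simple quotient.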

[1] = dose: 100.0 mg/kg/injection, schedule: Q01DX009 (ip), vehicle: saline with Tween-80
[2] = dose: 200.0 mg/kg/injection, schedule: Q01DX009 (ip), vehicle: saline with Tween-80
[3] = dose: 50.0 mg/kg/injection, schedule: Q01DX009 (ip), vehicle: other
[4] = dose: 100.0 mg/kg/injection, schedule: Q04DX003 (ip), vehicle: saline with Tween-80
[5] = dose: 200.0 mg/kg/injection, schedule: Q04DX003 (ip), vehicle: saline with Tween-80
[6] = dose: 400.0 mg/kg/injection, schedule: Q04DX003 (ip), vehicle: saline with Tween-80
[7] = dose: 50.0 mg/kg/injection, schedule: Q01DX009 (ip), vehicle: saline with Tween-80

SMILES: O=[N+]([O-])c1cccc(/C=C/c2ccccn2)c1
- T/C (dose: 50.0 mg/kg/injection, schedule: Q01DX009 (ip), vehicle: Klucel (hydroxypropylcellulose) (HPC)): 98 % of control
- T/C (dose: 100.0 mg/kg/injection, schedule: Q01DX009 (ip), vehicle: Klucel (hydroxypropylcellulose) (HPC)): 98 % of control
- T/C (dose: 200.0 mg/kg/injection, schedule: Q01DX009 (ip), vehicle: Klucel (hydroxypropylcellulose) (HPC)): 90 % of control

SMILES: CC(=O)C(C(C)=O)C1C=CCC1 (configuration not stated)
- T/C [1]: 107 % of control
- T/C [2]: 104 % of control
- T/C (dose: 400.0 mg/kg/injection, schedule: Q01DX009 (ip), vehicle: saline with Tween-80): 101 % of control

SMILES: CN=C(N)/N=C(\N)C(Cl)(Cl)Cl
- T/C (dose: 100.0 mg/kg/injection, schedule: Q01DX001 (ip), vehicle: saline): 111 % of control
- T/C (dose: 200.0 mg/kg/injection, schedule: Q01DX001 (ip), vehicle: saline): 86 % of control
- T/C (dose: 400.0 mg/kg/injection, schedule: Q01DX001 (ip), vehicle: saline): 90 % of control

SMILES: CCC1(O)CC2CN(CCc3c([nH]c4ccccc34)C(C(=O)OC)(c3cc4c(cc3OC)N(C)C3C(O)(C(=O)NCCO)C(O)C5(CC)C=CCN6CCC43C65)C2)C1 (configuration not stated)
- T/C (dose: 0.36 mg/kg/injection, schedule: Q01DX009 (ip), vehicle: water): 110 % of control
- T/C (dose: 0.52 mg/kg/injection, schedule: Q04DX003 (ip), vehicle: water): 108 % of control
- T/C (dose: 0.86 mg/kg/injection, schedule: Q04DX003 (ip), vehicle: water): 119 % of control
- T/C (dose: 1.44 mg/kg/injection, schedule: Q04DX003 (ip), vehicle: water): 118 % of control
- T/C (dose: 2.4 mg/kg/injection, schedule: Q04DX003 (ip), vehicle: water): 113 % of control

SMILES: CC(C)[NH-].CC(C)[NH-].[Cl][Pt+2][Cl]
- T/C (dose: 1.56 mg/kg/injection, schedule: Q01DX009 (ip), vehicle: dextrose): 119 % of control
- T/C (dose: 1.56 mg/kg/injection, schedule: Q01DX009 (ip), vehicle: other): 112 % of control
- T/C (dose: 3.12 mg/kg/injection, schedule: Q01DX009 (ip), vehicle: other): 118 % of control
- T/C (dose: 3.13 mg/kg/injection, schedule: Q04DX003 (ip), vehicle: distilled water + Tween-80): 112 % of control
- T/C (dose: 6.25 mg/kg/injection, schedule: Q01DX009 (ip), vehicle: dextrose): 100 % of control
- T/C (dose: 6.25 mg/kg/injection, schedule: Q04DX003 (ip), vehicle: distilled water + Tween-80): 115 % of control
- T/C (dose: 12.5 mg/kg/injection, schedule: Q01DX009 (ip), vehicle: dextrose): 98 % of control and 112 % of control
- T/C [3]: 88 % of control
- T/C (dose: 50.0 mg/kg/injection, schedule: Q04DX003 (ip), vehicle: distilled water + Tween-80): 118 % of control

SMILES: O=S(=O)(O)c1ccccc1O
- T/C (dose: 100.0 mg/kg/injection, schedule: Q01DX009 (ip), vehicle: saline): 101 % of control

SMILES: CCN(CC)C(=O)c1cc[n+](Cc2ccc(Cl)cc2)cc1
- T/C (dose: 100.0 mg/kg/injection, schedule: Q04DX003 (ip), vehicle: saline): 106 % of control
- T/C (dose: 200.0 mg/kg/injection, schedule: Q04DX003 (ip), vehicle: saline): 103 % of control

SMILES: CCOc1ccccc1NC(=O)NC1C(OC(C)=O)OC(COC(C)=O)C(OC(C)=O)C1OC(C)=O (configuration not stated)
- T/C (dose: 12.5 mg/kg/injection, schedule: Q01DX009 (ip), vehicle: other): 94 % of control
- T/C (dose: 25.0 mg/kg/injection, schedule: Q01DX009 (ip), vehicle: other): 100 % of control
- T/C [3]: 94 % of control
- T/C (dose: 100.0 mg/kg/injection, schedule: Q01DX009 (ip), vehicle: other): 96 % of control
- T/C (dose: 200.0 mg/kg/injection, schedule: Q01DX009 (ip), vehicle: other): 90 % of control

SMILES: O=C(SC(=O)c1ccccc1)c1ccccc1
- T/C [4]: 97 % of control
- T/C [5]: 100 % of control
- T/C [6]: 94 % of control

SMILES: CCC(C)(O)c1ccccc1 (configuration not stated)
- T/C [7]: 103 % of control
- T/C [1]: 100 % of control
- T/C [2]: 95 % of control

SMILES: O=C(Nc1ccc([N+](=O)[O-])cc1)OCC#CC#CCOC(=O)Nc1ccc([N+](=O)[O-])cc1
- T/C (dose: 100.0 mg/kg/injection, schedule: Q04DX003 (ip), vehicle: Klucel (hydroxypropylcellulose) (HPC)): 94 % of control
- T/C (dose: 200.0 mg/kg/injection, schedule: Q04DX003 (ip), vehicle: Klucel (hydroxypropylcellulose) (HPC)): 94 % of control

SMILES: CCOC(=O)C(C(=O)COC)C(=O)OCC
- T/C (dose: 25.0 mg/kg/injection, schedule: Q01DX009 (ip), vehicle: water): 102 % of control
- T/C (dose: 50.0 mg/kg/injection, schedule: Q01DX009 (ip), vehicle: water): 97 % of control
- T/C (dose: 100.0 mg/kg/injection, schedule: Q01DX009 (ip), vehicle: water): 97 % of control
- T/C (dose: 200.0 mg/kg/injection, schedule: Q01DX009 (ip), vehicle: water): 94 % of control

SMILES: COC12C(COC(N)=O)C3=C(C(=O)C(C)=C(N4CC4)C3=O)N1CC1NC12 (configuration not stated)
- T/C (dose: 0.14 mg/kg/injection, schedule: Q01DX007 (ip), vehicle: acetone): 124 % of control
- T/C (dose: 0.25 mg/kg/injection, schedule: Q01DX001 (ip), vehicle: acetone): 106 % of control
- T/C (dose: 0.33 mg/kg/injection, schedule: Q01DX001 (ip), vehicle: acetone): 116 % of control
- T/C (dose: 0.5 mg/kg/injection, schedule: Q01DX007 (ip), vehicle: acetone): 153 % of control
- T/C (dose: 1.0 mg/kg/injection, schedule: Q01DX001 (ip), vehicle: carboxymethylcellulose (CMC)): 151 % of control
- T/C (dose: 1.5 mg/kg/injection, schedule: Q01DX001 (ip), vehicle: carboxymethylcellulose (CMC)): 114 % of control

SMILES: Nc1ncnc2c1ncn2CCNC(=S)Nc1ccccc1
- T/C (dose: 6.25 mg/kg/injection, schedule: Q01DX005 (ip), vehicle: other): 88 % of control
- T/C (dose: 12.5 mg/kg/injection, schedule: Q01DX005 (ip), vehicle: other): 92 % of control
- T/C (dose: 25.0 mg/kg/injection, schedule: Q01DX005 (ip), vehicle: other): 88 % of control
- T/C (dose: 50.0 mg/kg/injection, schedule: Q01DX005 (ip), vehicle: other): 92 % of control
- T/C (dose: 100.0 mg/kg/injection, schedule: Q01DX005 (ip), vehicle: other): 92 % of control

SMILES: C=CCOC(=N)C(Cl)(Cl)Cl
- T/C [7]: 106 % of control
- T/C [1]: 95 % of control

SMILES: Cc1cc(N2C(=O)CSC2=S)ccc1Br
- T/C (dose: 100.0 mg/kg/injection, schedule: Q01DX001 (ip), vehicle: saline with Tween-80): 95 % of control
- T/C (dose: 200.0 mg/kg/injection, schedule: Q01DX001 (ip), vehicle: saline with Tween-80): 97 % of control
- T/C (dose: 400.0 mg/kg/injection, schedule: Q01DX001 (ip), vehicle: saline with Tween-80): 100 % of control

SMILES: Nc1nc2c(nc(N3CCCC3)n2C2OC(CO)C(O)C2O)c(=O)[nH]1 (configuration not stated)
- T/C (dose: 12.5 mg/kg/injection, schedule: Q01DX005 (ip), vehicle: distilled water + Tween-80): 100 % of control
- T/C (dose: 25.0 mg/kg/injection, schedule: Q01DX005 (ip), vehicle: distilled water + Tween-80): 102 % of control
- T/C (dose: 50.0 mg/kg/injection, schedule: Q01DX005 (ip), vehicle: distilled water + Tween-80): 98 % of control
- T/C (dose: 100.0 mg/kg/injection, schedule: Q01DX005 (ip), vehicle: distilled water + Tween-80): 100 % of control
- T/C (dose: 200.0 mg/kg/injection, schedule: Q01DX005 (ip), vehicle: distilled water + Tween-80): 100 % of control

SMILES: O=Cc1[nH]c(=S)[nH]c(=O)c1Cc1cccc2ccccc12
- T/C [4]: 96 % of control
- T/C [5]: 95 % of control
- T/C [6]: 102 % of control

SMILES: Nc1nc2c(c(=O)[nH]1)N1C(=S)N(c3ccc(C(=O)NC(CCC(=O)O)C(=O)O)cc3)CC1CN2 (configuration not stated)
- T/C (dose: 100.0 mg/kg/injection, schedule: Q01DX001 (ip), vehicle: sodium bicarbonate): 104 % of control
- T/C (dose: 200.0 mg/kg/injection, schedule: Q01DX001 (ip), vehicle: sodium bicarbonate): 98 % of control
- T/C (dose: 400.0 mg/kg/injection, schedule: Q01DX001 (ip), vehicle: sodium bicarbonate): 102 % of control

SMILES: O=C(O)c1ccc(C(=O)O)c(C(=O)O)c1.[NH-]C1CCCCCC1[NH-].[Pt+2]
- T/C (dose: 3.75 mg/kg/injection, schedule: Q04DX003 (ip), vehicle: sodium bicarbonate): 159 % of control
- T/C (dose: 7.5 mg/kg/injection, schedule: Q04DX003 (ip), vehicle: sodium bicarbonate): 156 % of control and 250 % of control
- T/C (dose: 15.0 mg/kg/injection, schedule: Q04DX003 (ip), vehicle: sodium bicarbonate): 200 % of control and 219 % of control
- T/C (dose: 30.0 mg/kg/injection, schedule: Q04DX003 (ip), vehicle: sodium bicarbonate): 105 % of control

SMILES: CC(=O)OC1CCC2(C)C(=CCC3C2CCC2(C)C(C(=O)CC(O)(C(F)(F)F)C(F)(F)F)CCC32)C1 (configuration not stated)
- T/C (dose: 12.5 mg/kg/injection, schedule: Q04DX002 (ip), vehicle: saline with Tween-80): 98 % of control
- T/C (dose: 25.0 mg/kg/injection, schedule: Q04DX002 (ip), vehicle: saline with Tween-80): 90 % of control
- T/C (dose: 50.0 mg/kg/injection, schedule: Q04DX002 (ip), vehicle: saline with Tween-80): 94 % of control

SMILES: Cc1cc2oc(=O)cc(O)c2c(=O)o1
- T/C [1]: 96 % of control
- T/C [4]: 94 % of control
- T/C [2]: 96 % of control
- T/C [5]: 97 % of control
- T/C [6]: 98 % of control
